# Results published in ChEMBL document CHEMBL5058646 (2022).
# Experiments:
# [1] = biological target: Sigma intracellular receptor 2 (Homo sapiens, UniProt Q5BJF2); test: GPCRScan assay: inhibition of Sigma 2; set-up: radioligand conc. used [nm] 5.0, parental cells HEKT
# Histamine H3 receptor = Histamine H3 receptor (Homo sapiens, UniProt Q9Y5N1); details: Compound concentration 10.0 uM
# [2] = biological target: Tyrosine-protein kinase Fes/Fps (Homo sapiens) (UniProt P07332); test: FES SGC Tm panel (DSF); details: Compound concentration 20.0 uM
# Myoneurin (Homo sapiens) = Myoneurin (Homo sapiens) (UniProt Q9NPC7); details: SUD4, Compound concentration 1.0 uM
# [3] = biological target: T1, Telomere zinc finger-associated protein (Homo sapiens) (UniProt P10074); details: SUD4, Compound concentration 1.0 uM
# T1 sequence (whole entry): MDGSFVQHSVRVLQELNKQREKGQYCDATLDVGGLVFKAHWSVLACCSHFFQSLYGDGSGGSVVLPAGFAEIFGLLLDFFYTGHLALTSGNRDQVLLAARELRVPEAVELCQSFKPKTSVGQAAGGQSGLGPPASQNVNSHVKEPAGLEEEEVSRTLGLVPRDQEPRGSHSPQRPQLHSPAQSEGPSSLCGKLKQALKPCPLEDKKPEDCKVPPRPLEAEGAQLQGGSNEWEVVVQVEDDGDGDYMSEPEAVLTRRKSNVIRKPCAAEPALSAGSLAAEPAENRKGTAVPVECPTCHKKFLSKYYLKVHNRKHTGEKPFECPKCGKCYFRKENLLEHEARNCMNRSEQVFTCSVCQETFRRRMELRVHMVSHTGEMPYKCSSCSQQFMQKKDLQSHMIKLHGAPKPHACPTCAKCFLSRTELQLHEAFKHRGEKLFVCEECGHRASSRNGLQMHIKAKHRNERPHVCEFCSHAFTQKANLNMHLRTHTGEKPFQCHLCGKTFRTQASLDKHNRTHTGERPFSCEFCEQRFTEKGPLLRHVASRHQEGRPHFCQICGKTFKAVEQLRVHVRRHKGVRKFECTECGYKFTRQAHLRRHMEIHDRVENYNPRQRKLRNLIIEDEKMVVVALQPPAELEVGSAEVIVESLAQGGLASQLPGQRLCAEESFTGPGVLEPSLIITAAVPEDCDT
# [4] = biological target: D(4) dopamine receptor (Homo sapiens) (UniProt P21917); details: Compound concentration 10.0 uM
# [5] = biological target: Phosphorylase b kinase gamma catalytic chain, liver/testis isoform (Homo sapiens) (UniProt P15735); test: PHKG2 SGC Tm panel (DSF); details: Compound concentration 20.0 uM
# [6] = biological target: Mitogen-activated protein kinase 1 (Homo sapiens) (UniProt P28482); test: MAPK1 SGC Tm panel (DSF); details: Compound concentration 20.0 uM
# [7] = biological target: Zinc finger and BTB domain-containing protein 43 (Homo sapiens) (UniProt O43298); details: SUD4, Compound concentration 1.0 uM
# [8] = biological target: Ephrin type-A receptor 5 (Homo sapiens) (UniProt P54756); test: EPHA5 SGC Tm panel (DSF); details: Compound concentration 20.0 uM
# [9] = biological target: Transcription regulator protein BACH2 (Homo sapiens) (UniProt Q9BYV9); details: SUD4, Compound concentration 1.0 uM
# [10] = biological target: Tyrosine-protein kinase Mer (Homo sapiens) (UniProt Q12866); test: MERTK SGC Tm panel (DSF); details: Compound concentration 20.0 uM
# [11] = biological target: Serine/threonine-protein kinase 17A (Homo sapiens) (UniProt Q9UEE5); test: STK17A SGC Tm panel (DSF); details: Compound concentration 20.0 uM
# [12] = biological target: Aurora kinase A (Homo sapiens) (UniProt O14965); test: STK6 SGC Tm panel (DSF); details: Compound concentration 20.0 uM
# Mu-type opioid receptor [13] = biological target: T2, Mu-type opioid receptor (Homo sapiens, UniProt P35372); test: GPCRScan assay: inhibition of MOR; set-up: radioligand conc. used [nm] 1.0 – 2.0, parental cells stable HEK
# [14] = biological target: Sodium-dependent dopamine transporter (Homo sapiens, UniProt Q01959); test: GPCRScan assay: inhibition of DAT; set-up: radioligand conc. used [nm] 3.6 – 16.0, parental cells stable HEK
# [15] = biological target: T3, Zinc finger and BTB domain-containing protein 10 (Homo sapiens) (UniProt Q96DT7); details: SUD4, Compound concentration 1.0 uM
# T3 sequence (whole entry): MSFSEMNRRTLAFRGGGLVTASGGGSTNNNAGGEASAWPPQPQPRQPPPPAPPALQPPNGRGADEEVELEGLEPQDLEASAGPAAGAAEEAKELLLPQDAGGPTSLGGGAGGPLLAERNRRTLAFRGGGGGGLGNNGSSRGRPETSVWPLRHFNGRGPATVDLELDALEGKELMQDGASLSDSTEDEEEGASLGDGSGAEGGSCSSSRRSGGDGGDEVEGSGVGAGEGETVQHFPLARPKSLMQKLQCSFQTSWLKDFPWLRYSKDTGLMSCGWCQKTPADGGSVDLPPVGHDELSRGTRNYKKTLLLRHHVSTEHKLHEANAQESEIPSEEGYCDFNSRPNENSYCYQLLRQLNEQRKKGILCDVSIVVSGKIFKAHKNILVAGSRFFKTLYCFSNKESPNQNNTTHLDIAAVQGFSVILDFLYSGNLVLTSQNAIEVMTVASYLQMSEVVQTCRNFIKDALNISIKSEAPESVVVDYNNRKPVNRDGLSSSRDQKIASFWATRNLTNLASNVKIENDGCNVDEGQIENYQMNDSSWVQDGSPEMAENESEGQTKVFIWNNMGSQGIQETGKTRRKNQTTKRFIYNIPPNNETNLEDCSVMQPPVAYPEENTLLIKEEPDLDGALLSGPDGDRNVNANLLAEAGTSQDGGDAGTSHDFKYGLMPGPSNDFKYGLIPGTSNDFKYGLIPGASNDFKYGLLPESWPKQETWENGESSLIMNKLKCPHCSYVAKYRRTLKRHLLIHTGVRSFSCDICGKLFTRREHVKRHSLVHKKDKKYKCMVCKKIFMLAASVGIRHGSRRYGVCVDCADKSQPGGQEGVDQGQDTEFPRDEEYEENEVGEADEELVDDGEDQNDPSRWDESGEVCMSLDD
# [16] = biological target: Mitogen-activated protein kinase 14 (Homo sapiens) (UniProt Q16539); test: MAPK14 SGC Tm panel (DSF); details: Compound concentration 20.0 uM
# [17] = biological target: GABA-A receptor; anion channel (Rattus norvegicus) (UniProt O09028+P15431+P18506+P18508+P19969+P20236+P23574+P23576+P28471+P28473+P30191+P62813+P63079+P63138+Q91ZM7+Q9ES14); details: Compound concentration 10.0 uM
# [18] = biological target: Myotonin-protein kinase (Homo sapiens) (UniProt Q09013); test: DMPK1 SGC Tm panel (DSF); details: Compound concentration 20.0 uM
# Mu-type opioid receptor [19] = biological target: T2, Mu-type opioid receptor; details: Compound concentration 10.0 uM
# [20] = biological target: T1, Telomere zinc finger-associated protein (Homo sapiens); details: SUD4, Compound concentration 1.0 uM; remark: listed apart in the source
# [21] = biological target: Protein archease (Homo sapiens) (UniProt Q8IWT0); details: SUD4, Compound concentration 1.0 uM
# Protein archease (Homo sapiens), sequence (Q8IWT0 whole entry): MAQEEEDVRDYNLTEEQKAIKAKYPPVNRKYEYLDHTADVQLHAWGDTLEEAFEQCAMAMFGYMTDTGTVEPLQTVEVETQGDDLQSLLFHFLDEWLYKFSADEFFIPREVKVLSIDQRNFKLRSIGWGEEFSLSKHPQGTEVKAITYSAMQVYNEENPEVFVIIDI
# T2 sequence (P35372 whole entry): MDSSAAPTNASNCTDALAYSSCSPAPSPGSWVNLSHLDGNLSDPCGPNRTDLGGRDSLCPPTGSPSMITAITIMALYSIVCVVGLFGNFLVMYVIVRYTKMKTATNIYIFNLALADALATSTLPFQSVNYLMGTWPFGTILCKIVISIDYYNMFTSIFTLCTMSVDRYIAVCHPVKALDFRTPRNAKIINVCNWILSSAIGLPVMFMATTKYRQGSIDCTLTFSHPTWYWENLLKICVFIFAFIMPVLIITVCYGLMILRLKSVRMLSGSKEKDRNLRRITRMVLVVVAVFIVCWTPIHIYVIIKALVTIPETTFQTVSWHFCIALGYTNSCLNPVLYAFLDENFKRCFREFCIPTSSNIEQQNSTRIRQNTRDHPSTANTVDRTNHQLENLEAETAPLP
# Sodium-dependent dopamine transporter, sequence (Q01959 whole entry, the tested form may be a part): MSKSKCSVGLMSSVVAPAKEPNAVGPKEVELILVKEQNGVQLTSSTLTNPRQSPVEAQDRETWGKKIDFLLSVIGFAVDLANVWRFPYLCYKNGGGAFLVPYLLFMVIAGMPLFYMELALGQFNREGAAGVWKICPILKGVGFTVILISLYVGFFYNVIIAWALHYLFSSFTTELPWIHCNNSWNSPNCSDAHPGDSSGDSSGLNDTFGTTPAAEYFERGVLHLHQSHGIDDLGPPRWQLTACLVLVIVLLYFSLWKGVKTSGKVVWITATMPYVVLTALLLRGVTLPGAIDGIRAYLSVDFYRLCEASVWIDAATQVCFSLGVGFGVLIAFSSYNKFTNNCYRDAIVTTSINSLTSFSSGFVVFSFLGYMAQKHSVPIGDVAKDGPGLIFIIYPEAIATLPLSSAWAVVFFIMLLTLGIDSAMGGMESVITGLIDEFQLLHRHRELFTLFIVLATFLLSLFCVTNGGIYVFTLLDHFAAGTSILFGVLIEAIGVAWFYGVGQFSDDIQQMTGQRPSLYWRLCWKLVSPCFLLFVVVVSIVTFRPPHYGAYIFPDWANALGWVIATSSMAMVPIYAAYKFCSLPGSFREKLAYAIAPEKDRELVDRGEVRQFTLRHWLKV
# Mitogen-activated protein kinase 14 (Homo sapiens), sequence (Q16539 whole entry): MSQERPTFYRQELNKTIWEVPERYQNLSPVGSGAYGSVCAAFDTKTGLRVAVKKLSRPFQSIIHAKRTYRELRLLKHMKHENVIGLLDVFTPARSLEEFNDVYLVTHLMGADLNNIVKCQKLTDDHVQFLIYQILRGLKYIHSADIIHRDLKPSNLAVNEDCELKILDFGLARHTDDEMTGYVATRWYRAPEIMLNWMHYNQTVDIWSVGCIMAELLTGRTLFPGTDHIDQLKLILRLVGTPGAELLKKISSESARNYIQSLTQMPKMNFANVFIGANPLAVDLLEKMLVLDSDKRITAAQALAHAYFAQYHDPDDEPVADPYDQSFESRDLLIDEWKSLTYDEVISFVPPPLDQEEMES
# Tyrosine-protein kinase Fes/Fps (Homo sapiens), sequence (P07332 whole entry): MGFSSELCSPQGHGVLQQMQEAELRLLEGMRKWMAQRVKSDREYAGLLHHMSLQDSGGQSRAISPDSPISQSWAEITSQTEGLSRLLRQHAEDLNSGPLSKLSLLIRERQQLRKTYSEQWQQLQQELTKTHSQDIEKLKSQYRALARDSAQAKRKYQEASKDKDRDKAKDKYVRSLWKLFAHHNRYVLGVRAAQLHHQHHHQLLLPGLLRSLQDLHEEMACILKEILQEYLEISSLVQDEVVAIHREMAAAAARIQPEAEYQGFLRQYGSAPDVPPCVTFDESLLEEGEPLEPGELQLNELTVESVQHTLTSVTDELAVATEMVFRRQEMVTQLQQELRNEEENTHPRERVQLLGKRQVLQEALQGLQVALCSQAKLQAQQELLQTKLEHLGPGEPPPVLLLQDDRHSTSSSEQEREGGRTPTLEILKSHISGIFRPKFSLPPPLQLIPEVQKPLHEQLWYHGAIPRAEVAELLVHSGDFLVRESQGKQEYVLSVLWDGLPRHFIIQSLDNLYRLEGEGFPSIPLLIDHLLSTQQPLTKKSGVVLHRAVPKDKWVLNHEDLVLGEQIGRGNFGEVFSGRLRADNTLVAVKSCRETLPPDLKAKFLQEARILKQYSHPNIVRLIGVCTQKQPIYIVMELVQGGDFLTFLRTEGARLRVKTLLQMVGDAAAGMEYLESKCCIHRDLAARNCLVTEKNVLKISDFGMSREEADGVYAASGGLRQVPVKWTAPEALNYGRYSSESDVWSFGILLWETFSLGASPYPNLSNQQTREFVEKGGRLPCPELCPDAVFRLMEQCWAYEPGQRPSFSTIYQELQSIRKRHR
# Tyrosine-protein kinase Mer (Homo sapiens), sequence (Q12866 whole entry): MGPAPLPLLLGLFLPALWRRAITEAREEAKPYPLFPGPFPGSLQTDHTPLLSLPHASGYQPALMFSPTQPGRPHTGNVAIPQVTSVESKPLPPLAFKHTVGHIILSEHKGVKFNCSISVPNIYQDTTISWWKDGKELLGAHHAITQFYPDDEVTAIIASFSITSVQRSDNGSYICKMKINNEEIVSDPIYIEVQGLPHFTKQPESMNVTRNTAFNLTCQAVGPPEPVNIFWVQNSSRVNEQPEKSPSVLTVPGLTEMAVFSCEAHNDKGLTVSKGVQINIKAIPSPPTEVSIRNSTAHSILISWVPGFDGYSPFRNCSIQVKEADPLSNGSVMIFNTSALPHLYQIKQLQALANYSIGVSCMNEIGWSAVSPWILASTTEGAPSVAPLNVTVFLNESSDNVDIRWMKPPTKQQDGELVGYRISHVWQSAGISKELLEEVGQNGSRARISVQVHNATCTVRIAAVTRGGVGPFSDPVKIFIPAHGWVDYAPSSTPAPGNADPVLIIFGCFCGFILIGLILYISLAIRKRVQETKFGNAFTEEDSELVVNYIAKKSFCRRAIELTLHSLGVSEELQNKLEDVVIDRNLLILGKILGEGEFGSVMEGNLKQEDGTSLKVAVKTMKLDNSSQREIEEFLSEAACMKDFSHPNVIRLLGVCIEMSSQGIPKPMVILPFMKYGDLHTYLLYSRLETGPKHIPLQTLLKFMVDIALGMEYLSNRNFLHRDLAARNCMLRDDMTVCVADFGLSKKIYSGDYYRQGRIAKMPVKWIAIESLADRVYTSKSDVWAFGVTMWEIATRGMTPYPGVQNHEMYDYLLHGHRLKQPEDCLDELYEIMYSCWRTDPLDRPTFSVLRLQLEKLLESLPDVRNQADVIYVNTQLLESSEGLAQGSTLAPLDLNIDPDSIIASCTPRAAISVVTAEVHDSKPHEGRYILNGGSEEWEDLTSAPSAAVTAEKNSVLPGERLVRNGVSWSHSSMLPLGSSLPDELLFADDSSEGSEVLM
# Myotonin-protein kinase (Homo sapiens), sequence (Q09013 whole entry): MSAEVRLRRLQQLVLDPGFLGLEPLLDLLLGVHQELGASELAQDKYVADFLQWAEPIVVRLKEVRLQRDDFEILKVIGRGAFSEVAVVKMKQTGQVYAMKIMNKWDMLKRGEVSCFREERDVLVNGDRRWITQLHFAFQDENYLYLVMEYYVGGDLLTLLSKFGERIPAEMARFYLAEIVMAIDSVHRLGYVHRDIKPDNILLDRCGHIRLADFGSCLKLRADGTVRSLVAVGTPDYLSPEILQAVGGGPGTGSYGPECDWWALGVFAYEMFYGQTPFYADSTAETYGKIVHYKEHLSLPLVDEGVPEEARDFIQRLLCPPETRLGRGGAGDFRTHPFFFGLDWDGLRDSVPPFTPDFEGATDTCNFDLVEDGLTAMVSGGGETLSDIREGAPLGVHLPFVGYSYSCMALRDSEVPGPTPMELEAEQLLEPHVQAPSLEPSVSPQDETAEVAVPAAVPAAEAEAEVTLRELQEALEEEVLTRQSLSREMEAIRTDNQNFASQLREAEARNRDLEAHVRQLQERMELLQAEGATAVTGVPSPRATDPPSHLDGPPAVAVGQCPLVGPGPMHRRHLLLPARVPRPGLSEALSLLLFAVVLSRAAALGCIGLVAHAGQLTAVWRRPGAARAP
# D(4) dopamine receptor (Homo sapiens), sequence (P21917 whole entry, canonical isoform): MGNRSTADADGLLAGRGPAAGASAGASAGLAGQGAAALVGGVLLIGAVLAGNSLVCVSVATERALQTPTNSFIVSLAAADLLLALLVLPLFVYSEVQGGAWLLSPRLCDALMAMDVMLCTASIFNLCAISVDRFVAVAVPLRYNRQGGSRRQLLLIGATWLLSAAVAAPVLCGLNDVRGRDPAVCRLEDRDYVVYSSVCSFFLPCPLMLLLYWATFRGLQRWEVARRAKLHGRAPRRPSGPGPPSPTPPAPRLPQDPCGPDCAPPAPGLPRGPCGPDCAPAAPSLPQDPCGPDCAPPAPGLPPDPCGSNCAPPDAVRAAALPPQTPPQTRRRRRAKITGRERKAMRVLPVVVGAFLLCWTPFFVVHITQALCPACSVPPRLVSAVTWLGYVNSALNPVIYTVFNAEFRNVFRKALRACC
# Zinc finger and BTB domain-containing protein 43 (Homo sapiens), sequence (O43298 whole entry, the tested form may be a part): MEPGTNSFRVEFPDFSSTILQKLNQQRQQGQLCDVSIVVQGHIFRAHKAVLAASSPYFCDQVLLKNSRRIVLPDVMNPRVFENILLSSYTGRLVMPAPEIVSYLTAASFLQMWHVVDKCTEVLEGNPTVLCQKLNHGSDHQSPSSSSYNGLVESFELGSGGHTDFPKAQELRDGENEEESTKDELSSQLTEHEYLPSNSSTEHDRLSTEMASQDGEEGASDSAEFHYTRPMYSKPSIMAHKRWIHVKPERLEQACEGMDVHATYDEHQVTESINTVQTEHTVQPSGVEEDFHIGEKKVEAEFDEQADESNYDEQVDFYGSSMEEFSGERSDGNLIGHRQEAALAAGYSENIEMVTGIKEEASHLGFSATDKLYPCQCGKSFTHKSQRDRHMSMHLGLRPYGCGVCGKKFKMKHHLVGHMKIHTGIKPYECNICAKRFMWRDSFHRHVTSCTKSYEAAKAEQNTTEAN
smiles,measurement,setting,value
C[C@@H]1CN(c2ncc(Cl)c(Nc3ccc4c(c3)n(CCC(C)(C)O)c(=O)n4C)n2)C[C@H](C)C1(F)F,Ki,[1],2500 nM
same,inhibition,Histamine H3 receptor,60.7%
same,Tm,[2],44 °C
same,LogFC,Myoneurin (Homo sapiens),-0.135
same,LogFC,[3],0.0324
same,inhibition,[4],15.2%
same,Tm,[5],46 °C
same,Tm,[6],56 °C
same,LogFC,[7],0.0389
same,Tm,[8],44 °C
same,LogFC,[9],-0.0895
same,Tm,[10],47 °C
same,Tm,[11],42 °C
same,Tm,[12],45 °C
same,Ki,Mu-type opioid receptor [13]; read-out: Ki,872 nM
same,Ki,Mu-type opioid receptor [13]; read-out: pKi (converted),851 nM
same,Ki,[14]; read-out: Ki,5.09 µM
same,Ki,[14]; read-out: pKi (converted),4.9 µM
same,LogFC,[15],0.121
same,Tm,[16],45 °C
same,inhibition,[17],7.06%
same,Tm,[18],50 °C
same,inhibition,Mu-type opioid receptor [19],86.6%
same,LogFC,[20],-0.0152
same,LogFC,[21],0.104
